Data: PMC10461224, “Development of an Affinity-Based Probe to Profile Endogenous Human Adenosine A3 Receptor Expression” (Journal of Medicinal Chemistry, 2023)
Marks after values point to notes of the source that are not given here.

How the values were obtained:
Type in all cases: binding
hA3AR [1] = target: T1, hA3AR (Homo sapiens, UniProt P0DMS8); assay: Full curve radioligand displacement assay on the adenosine A3 receptor, [3H]PSB-11; conditions: mean ± SEM, n=3; for apparent pKi (pre-0 h) / apparent pKi (pre-4 h): CHO-hA3AR membranes, 25 °C; for apparent pKi (pre-0 h): 0.5 h co-incubation of probe and radioligand, no pre-incubation; for apparent pKi (pre-4 h): 4 h pre-incubation with probe then 0.5 h co-incubation with radioligand; for fold change, ratio Ki(0 h)/Ki(4 h): hA3AR
T1 construct: expressed in transfected cells; host or cells: CHO cells (CHOhA3AR), gift of Prof; K.N. Klotz, University of Würzburg; used as membrane fractions or live cells
T1 sequence (P0DMS8 1-318): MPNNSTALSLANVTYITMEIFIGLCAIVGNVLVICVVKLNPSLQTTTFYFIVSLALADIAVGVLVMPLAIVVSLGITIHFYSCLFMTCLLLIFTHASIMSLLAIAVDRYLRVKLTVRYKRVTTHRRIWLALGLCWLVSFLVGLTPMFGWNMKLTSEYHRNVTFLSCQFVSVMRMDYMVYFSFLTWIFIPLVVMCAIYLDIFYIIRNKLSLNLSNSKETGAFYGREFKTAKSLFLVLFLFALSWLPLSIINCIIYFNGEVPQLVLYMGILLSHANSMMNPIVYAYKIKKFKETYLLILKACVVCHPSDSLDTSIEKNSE
Protocol: Membrane aliquots containing 15 μg of protein (CHOhA3AR) were resuspended in assay buffer (50 mM Tris–HCl, pH 8.0, 10 mM MgCl2, 1 mM EDTA, 0.01% CHAPS). The competing ligand (concentrations ranging from 0.1 to 1000 nM) was added and pre-incubated with the membrane fractions for either 0 or 4 h. The radioligand (10 nM [^3H]PSB-11) was then added and incubated with the samples in a total volume of 100 μL of assay buffer for 30 min at 25 °C. Nonspecific binding was determined in the presence of 100 μM NECA. Incubations were terminated by rapid vacuum filtration through prewetted 96-well GF/C filter plates using a PerkinElmer Filtermate harvester. Filters were subsequently washed 12 times with ice-cold wash buffer (50 mM Tris–HCl, pH 8.0, 10 mM MgCl2, 1 mM EDTA). The plates were dried at 55 °C, and MicroscintTM-20 cocktail (PerkinElmer) was added subsequently. After 3 h, the filter-bound radioactivity was determined using a Tri-Carb 2810TR Liquid Scintillation Analyzer (PerkinElmer).
[…]. Single point displacement values shown are mean percentages of two individual experiments performed in duplicate. All pKi values shown are mean values ± SEM of three individual experiments performed in duplicate. Statistical analysis was performed using a one-way ANOVA test with multiple comparisons (****p < 0.0001).

human A2BAR (hA2BAR) = target: T2, human A2BAR (hA2BAR) (Homo sapiens, UniProt P29275); assay: Single-point radioligand displacement, [3H]PSB-603; conditions: 1 μM probe; CHO-spap cell membranes; co-incubated with radioligand 30 min at 25 °C; mean of two experiments
T2 construct: expressed in transfected cells; host or cells: CHO-spap cells (CHO-spap-hA2BAR), gift of S.J. Dowell, GlaxoSmithKline; membrane fractions
T2 sequence (P29275 1-332): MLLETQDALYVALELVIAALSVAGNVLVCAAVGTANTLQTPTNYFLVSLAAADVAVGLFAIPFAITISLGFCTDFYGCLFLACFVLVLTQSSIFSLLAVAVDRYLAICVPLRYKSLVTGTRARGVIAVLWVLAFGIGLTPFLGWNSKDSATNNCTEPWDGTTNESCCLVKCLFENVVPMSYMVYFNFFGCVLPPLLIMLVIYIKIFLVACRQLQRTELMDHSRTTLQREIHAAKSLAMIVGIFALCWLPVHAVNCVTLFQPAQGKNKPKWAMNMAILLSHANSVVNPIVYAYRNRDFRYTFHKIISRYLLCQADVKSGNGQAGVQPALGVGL
Protocol: (§1) Membrane aliquots containing 15 μg (CHOhA3AR), 5 μg (CHOhA1AR), or 30 μg (HEK293hA2AAR and CHO-spap-A2BAR) of protein were resuspended in assay buffer (A3AR: 50 mM Tris–HCl, pH 8.0, 10 mM MgCl2, 1 mM EDTA, 0.01% CHAPS; A1AR and A2AAR: 50 mM Tris–HCl, pH 7.4; A2BAR: 50 mM Tris–HCl, pH 7.4, 0.1% CHAPS). […] Nonspecific binding was determined in the presence of 100 μM NECA (A3AR), 100 μM CPA (A1AR), 100 μM NECA (A2AAR), and 10 μM ZM241385 (A2BAR). Incubations were terminated by rapid vacuum filtration to separate the bound and free radioligand through prewetted 96-well GF/C filter plates using a PerkinElmer Filtermate harvester. Filters were subsequently washed 12 times with ice-cold wash buffer (A3AR: 50 mM Tris–HCl, pH 8.0, 10 mM MgCl2, 1 mM EDTA; A1AR and A2AAR: 50 mM Tris–HCl, pH 7.4; A2BAR: 50 mM Tris–HCl, pH 7.4, 0.1% BSA). The plates were dried at 55 °C, and MicroscintTM-20 cocktail (PerkinElmer) was added subsequently.
(§2) Single point displacement values shown are mean percentages of two individual experiments performed in duplicate. All pKi values shown are mean values ± SEM of three individual experiments performed in duplicate.

human A1AR (hA1AR) = target: T3, human A1AR (hA1AR) (Homo sapiens, UniProt P30542); assay: Single-point radioligand displacement, [3H]DPCPX; conditions: 1 μM probe; CHO cell membranes; co-incubated with radioligand 30 min at 25 °C; mean of two experiments
T3 construct: expressed in transfected cells; host or cells: CHO cells (CHOhA1AR), gift of Prof; S.J. Hill, University of Nottingham; membrane fractions
T3 sequence (P30542 1-326): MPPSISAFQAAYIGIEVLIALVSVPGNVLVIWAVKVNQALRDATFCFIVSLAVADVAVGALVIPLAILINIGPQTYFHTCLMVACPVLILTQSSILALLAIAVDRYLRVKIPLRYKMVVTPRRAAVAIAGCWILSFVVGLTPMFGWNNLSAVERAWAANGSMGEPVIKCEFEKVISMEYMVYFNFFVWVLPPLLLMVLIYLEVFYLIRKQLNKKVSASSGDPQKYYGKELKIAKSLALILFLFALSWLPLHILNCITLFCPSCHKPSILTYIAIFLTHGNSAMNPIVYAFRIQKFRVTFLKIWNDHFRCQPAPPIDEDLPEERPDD
Protocol: as §1, §2

hA3AR [2] = target: T1, hA3AR; assay: Single-point radioligand displacement, [3H]PSB-11; conditions: 1 μM probe; CHO cell membranes; co-incubated with radioligand 30 min at 25 °C; mean of two experiments
Protocol: as §1, §2

Which “apparent pKi (pre-0 h)” value (hA3AR [1]) does the source give for C#CCOc1ccn2c(c1)nc1c2c(=O)n(CCC)c(=O)n1CCCNC(=O)c1ccc(S(=O)(=O)F)cc1 [compound 9, 4-((3-(2,4-Dioxo-8-(prop-2-yn-1-yloxy)-3-propyl-3,4-dihydropyrido[2,1-f]purin-1(2H)-yl)propyl)carbamoyl)benzenesulfonyl fluoride] here?
The value was 7.27 ± 0.07.

And the “apparent pKi (pre-4 h)” value (hA3AR [1])?
The value was 8.40 ± 0.03 ^d.

And the “fold change, ratio Ki(0 h)/Ki(4 h)” value (hA3AR [1])?
The value was 13.5 ± 1.2.

What about the “% specific [3H]PSB-603 displacement, hA2BAR” value (human A2BAR (hA2BAR)) of the same compound?
Its value is 1%.

And the “% specific [3H]DPCPX displacement, hA1AR” value (human A1AR (hA1AR))?
The value was 21%.

And the “% specific [3H]PSB-11 displacement, hA3AR” value (hA3AR [2])?
Its value is 95%.

Which “apparent pKi (pre-0 h)” value (hA3AR [1]) does the source give for C#CCN(CCCn1c(=O)n(CCC)c(=O)c2c1nc1cc(OC)ccn12)C(=O)c1ccc(S(=O)(=O)F)cc1 [compound 5, 4-((3-(8-Methoxy-2,4-dioxo-3-propyl-3,4-dihydropyrido[2,1-f]purin-1(2H)-yl)propyl)(prop-2-yn-1-yl)carbamoyl)benzenesulfonyl fluoride] here?
The value was 7.55 ± 0.01.

And the “apparent pKi (pre-4 h)” value (hA3AR [1])?
The value was 8.52 ± 0.05 ^d.

What about the “fold change, ratio Ki(0 h)/Ki(4 h)” value (hA3AR [1]) of the same compound?
The value was 9.5 ± 1.0.

And the “% specific [3H]PSB-603 displacement, hA2BAR” value (human A2BAR (hA2BAR))?
Its value is 10%.

And the “% specific [3H]DPCPX displacement, hA1AR” value (human A1AR (hA1AR))?
The value was 2%.

And the “% specific [3H]PSB-11 displacement, hA3AR” value (hA3AR [2])?
Its value is 95%.
